Results as given in patent US7455861B2, “Angelicae sinensis extracts useful for treatment of cancers” (priority 2004, dated 2008).
In brackets after ≈: the same amount, converted by molar mass.

How the values were obtained:
[1] = Cytotoxicity (IC50) on HUVEC; assay type: cell-based, human; conditions: human
Text: (§1) Human umbilical vascular endothelial cells (HUVECs) were purchased from Cascade Biologics, Inc. (USA). HUVECs were maintained in Medium 200 (Cascade Biologics, Inc. USA) supplemented with 10% fetal bovine serum (FBS; Gibco BRL) and low serum growth supplement (LSGS; Cascade Biologics, Inc. USA). Human dermal fibroblasts (HDFs) were purchased from Cascade Biologics, Inc. (USA). HDFs were maintained in Medium 106 (Cascade Biologics, Inc. USA) supplemented with 10% FBS and low serum growth supplement (LSGS; Cascade Biologics, Inc. USA). The human colon adenocarcinoma cell lines HT-29 were purchased from the ATCC (Manassas, Va. USA). HT-29 were maintained in Dubecco's Modified Eagle Medium (DMEM; Gibco) supplemented with 10% FBS and 100 ng/ml penicillin and […] streptomycin (Life Technologies, Inc., Grand Island, N.Y., USA). For the proliferation assay of cell in log growth (G1), the cells were harvested at 60-80% of confluence. 100 μl of cell suspensions were dispensed onto a Falcon 96-well plates The densities were 6×10^3 cells/well in Medium 200 (for HUVECs), and 9×10^3 cells/well in Medium 106 (for HDFs), and 5×10^3 cells/well in DMEM (for HT-29) supplemented with 10% FBS. The cells were pre-incubated for 24 hours in an incubator (Humidified atmosphere, e.g., at 37° C., 5% CO2). 10 μl of toxicant of various concentrations were added into the culture medium of the plate. The cell cultures were incubated for 48 hours. 10 μl of the Cell Counting Kit-8 (CCK-8; DOJINDO) solution were added and the cell cultures incubated for 1˜4 hours in the incubator. The absorbance was measured at 450 nm, using a microplate reader with a reference wavelength at 600 nm or over.
(§2) Human tumor cell lines (MCF-7, CL1-5, HT-29, Caco-2), human umbilical vascular endothelial cells (HUVEC), and human dermal fibroblasts (HDF) were tested for sensitivity on Angelicae sinensis extracts, ligustilide, n-butylidenephthalide and its derivatives in vitro. The DBTRG-05MG, BCM, HL-60 and J5 cells were grown in RPMI-1640 medium containing 10% fetal calf serum and 100 ng/ml penicillin and […] streptomycin at 37° C. in a humidified atmosphere with 5% CO2. The G5T/VGH, RG2, Ni 8, SVEC and Balb/3T3 cells were cultured in DMEM with 10% fetal calf serum and 100 ng/ml penicillin and […] streptomycin at 37° C. in 5% CO2. Mycoplasma infection of the culture cells was excluded by PCR screening methods before each experiment.
(§3) The effects on cell viability after the treatments with different concentrations of the Angelicae sinensis extracts or the active components purified therefrom were evaluated by modified MTT assay in triplicate. Briefly, the cells (5×10^3) were incubated into 96-well plates containing 100 μl of a growth medium. The cells were permitted to adhere for 24 hours, then treated with 100 μl of the herbal extracts or the active components dissolved in the medium. The control contained DMSO of <0.02% (v/v). After 24, 48 and 72 h incubation, the drug-containing medium was replaced by 50 μl of fresh medium, and cells in each well were incubated in 50 μl of 400 μg/ml MTT for 6-8 h. The medium and MTT were removed later and 100 μl of DMSO was added to each well and to the control, to dissolve the soluble components. Absorbance at 550 nm of the solutions was measured with MRX Microtiter Plate Luminometer (DYNEX, USA). The absorbance of untreated cells was considered as 100%. To evaluate the effects of the extracts or the active components on cell growth rate of GBM cells, 5×10^3 exponentially growing cells were treated with different concentrations for 24, 48, or 72 h. The cytotoxicity of each test substance was determined as an IC50 value, which represents the drug concentration required to cause 50% inhibition. All experiments in this study were performed in triplicate.

G5T/VGH = assay: Cytotoxicity (IC50) on G5T/VGH; assay type: cell-based; conditions: Homo sapiens; Table 2
Description: as §2
The effects on cell viability after the treatments with different concentrations of the Angelicae sinensis extracts or the active components purified therefrom were evaluated by modified MTT assay in triplicate. Briefly, the cells (5×10^3) were incubated into 96-well plates containing 100 μl of a growth medium. The cells were permitted to adhere for 24 hours, then treated with 100 μl of the herbal extracts or the active components dissolved in the medium. The control contained DMSO of <0.02% (v/v). […] Absorbance at 550 nm of the solutions was measured with MRX Microtiter Plate Luminometer (DYNEX, USA). The absorbance of untreated cells was considered as 100%. […]

DBTRG-05MG = assay: Cytotoxicity (IC50) on DBTRG-05MG; assay type: cell-based; conditions: Homo sapiens, read-out: Cytotoxicity (IC50) DBTRG-05MG
Description: as §2
as §3, with “All experiments in this study were performed in triplicate.” left out

HUVEC [2] = assay: Cytotoxicity (IC50) on HUVEC; assay type: cell-based, human; conditions: normal cells; for Cytotoxicity, IC50 HUVEC: Table 1; for IC50: Table 1, value in parentheses
Text: as §1, §2, §3

HDF = assay: Cytotoxicity (IC50) on HDF; assay type: cell-based, human; conditions: normal cells; for Cytotoxicity, IC50 HDF: Table 1; for IC50: Table 1, value in parentheses
Text: as §1, §2
as §3, with “To evaluate the effects of the extracts or the active components on cell growth rate of GBM cells, 5×10^3 exponentially growing cells were treated with different concentrations for 24, 48, or 72 h. The cytotoxicity of each test substance was determined as an IC50 value, which represents the drug concentration required to cause 50% inhibition. All experiments in this study were performed in triplicate.” left out

RG2 = assay: Cytotoxicity (IC50) on RG2; assay type: cell-based, rat; conditions: for IC50: Table 1, value in parentheses; for Cytotoxicity, IC50 RG2: cancer cells, Table 1
Description: as §2, §3

ETS-1 = assay: RT-PCR of ETS-1 in HUVEC; assay type: cell-based, human
brain tumor cell lines = assay: Cytotoxicity (IC50) on brain tumor cell lines, pooled statement; assay type: cell-based; conditions: GBM tumors not sensitive
Description: as §3

MMP-2 = assay: RT-PCR of MMP-2 in HUVEC; assay type: cell-based, human
HUVEC [3] = assay: Tube formation of HUVEC; assay type: cell-based, human

SMILES	IC50 [1] [mg/L]	IC50 (G5T/VGH) [mg/L]	IC50 (DBTRG-05MG) [mg/L]	Cytotoxicity, IC50 HUVEC (HUVEC [2]) [mg/L]	IC50 (HUVEC [2]) [µM]	Cytotoxicity, IC50 HDF (HDF) [mg/L]	IC50 (HDF) [µM]	IC50 (RG2) [µM]	Cytotoxicity, IC50 RG2 (RG2) [mg/L]	Inhibition RT-PCR ETS-1 (ETS-1) [µg/mL]	IC50 GBM tumors (brain tumor cell lines) [mg/L]	Inhibition RT-PCR MMP-2 (MMP-2) [µg/mL]	Inhibition Tube Formation (HUVEC [3]) [µg/mL]
CC(=O)O[C@H]1C(=O)[C@@]2(C)[C@H]([C@H](OC(=O)c3ccccc3)[C@]3(O)C[C@H](OC(=O)[C@H](O)[C@@H](NC(=O)c4ccccc4)c4ccccc4)C(C)=C1C3(C)C)[C@]1(OC(C)=O)CO[C@@H]1C[C@@H]2O [Taxol, reference compound]	< 0.1	< 0.1	61 ± 3.3 (≈ 71.4 µM)	–	–	–	–	–	–	–	–	–	–
CCC/C=C1/OC(=O)c2ccccc21 [BP-E form]	–	–	–	>100	> 532	>100	> 532	> 106	>20	159.4	–	–	–
O=NN(CCCl)C(=O)NCCCl [carmustin, reference compound]	–	–	–	–	–	–	–	–	–	–	> 100	–	–
CCC/C=C1\OC(=O)c2ccccc21 [BP-Z form]	–	–	–	>100	> 532	65.25	347	> 106	>20	159.4	–	531.3	159.4
